Among the data in US10196386B2, “Compounds having muscarinic receptor antagonist and beta2 adrenergic receptor agonist activity” (priority 2016, dated 2019) are IC50 values, retold here.

Structures are written as SMILES. pIC50: −log10 of the molar value.

One assay addresses T1, Human β2 adrenoceptor (Homo sapiens, UniProt P07550).
T1 construct: purchased Perkin Elmer
The assay is described as follows: β2 adrenoceptor radioligand binding assay. The protocol:
β2 Adrenoceptor Radioligand Binding Assay
Human β2 adrenoceptor membranes (7.5 ug/well) from Perkin Elmer were incubated with 0.3 nM 125-I Cyanopindolol with or without test compounds, or a saturating concentration of s-propranolol (2 μM) for the determination of non-specific binding. The assay was carried out in 96-well polypropylene plates in a volume of 200 ul. The assay buffer used was 25 mM HEPES, 0.5% BSA (w/v), 1 mM EDTA, 0.02% ascorbic acid (v/v), (pH 7.4). The final assay concentration of DMSO was 0.5% (v/v). The plates were sealed and incubated for 1 h at room temperature on an orbital shaker (slow speed). Membranes were harvested onto 96-well unifilter GF/C filter plates pre-treated with 0.5% polyethyleneimine (v/v), using a filter manifold, washed six times with 200 ul of wash buffer containing 10 mM HEPES and 500 mM NaCl. The plates were dried before addition of 50 μl of microscint-0, sealed then read in a Trilux Microbeta scintillation counter. IC50 values are determined from competition curves using a non-linear curve fitting program. Ki values were calculated from IC50 values by the Cheng and Prusoff equation.

The target in another assay is T2, Human M3 receptor (Homo sapiens, UniProt P20309).
T2 construct: purchased Perkin Elmer
T2 sequence (P20309 whole entry): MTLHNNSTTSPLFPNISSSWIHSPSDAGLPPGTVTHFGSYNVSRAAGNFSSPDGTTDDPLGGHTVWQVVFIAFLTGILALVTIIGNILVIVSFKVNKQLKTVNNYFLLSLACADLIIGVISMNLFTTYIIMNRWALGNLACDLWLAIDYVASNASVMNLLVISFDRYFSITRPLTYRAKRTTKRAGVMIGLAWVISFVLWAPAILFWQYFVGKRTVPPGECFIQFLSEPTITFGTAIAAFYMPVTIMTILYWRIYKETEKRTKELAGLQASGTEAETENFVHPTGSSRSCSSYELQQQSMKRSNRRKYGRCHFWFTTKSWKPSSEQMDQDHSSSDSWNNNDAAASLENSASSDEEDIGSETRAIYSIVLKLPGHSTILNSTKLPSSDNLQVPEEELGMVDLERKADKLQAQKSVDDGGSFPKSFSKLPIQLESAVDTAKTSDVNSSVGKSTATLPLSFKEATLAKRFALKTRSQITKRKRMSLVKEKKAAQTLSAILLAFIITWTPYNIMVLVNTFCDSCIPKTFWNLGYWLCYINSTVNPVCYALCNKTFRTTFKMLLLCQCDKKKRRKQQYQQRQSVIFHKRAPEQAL
The assay is described as follows: biochemical. Format: binding. Particulars: read-out: M3 Range.

T1 sequence (P07550 whole entry): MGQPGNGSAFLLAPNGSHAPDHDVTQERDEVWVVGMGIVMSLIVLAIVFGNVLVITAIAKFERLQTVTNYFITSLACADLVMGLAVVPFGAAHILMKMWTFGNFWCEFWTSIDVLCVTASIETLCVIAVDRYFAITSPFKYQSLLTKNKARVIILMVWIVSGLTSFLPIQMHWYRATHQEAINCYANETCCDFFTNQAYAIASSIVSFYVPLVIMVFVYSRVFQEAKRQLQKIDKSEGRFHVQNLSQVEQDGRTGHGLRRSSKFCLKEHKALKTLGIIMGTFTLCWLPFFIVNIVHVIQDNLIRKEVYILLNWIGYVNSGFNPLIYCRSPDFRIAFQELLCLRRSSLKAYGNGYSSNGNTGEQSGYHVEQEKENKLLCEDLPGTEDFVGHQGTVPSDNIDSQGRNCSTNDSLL

As to `COc1cc(C(=O)NCc2ccc(-c3cccc([C@](O)(C(=O)OCC4CCN(Cc5ccccc5)CC4)c4ccccc4)c3)s2)cc(F)c1CNC[C@H](O)c1ccc(O)c2[nH]c(=O)ccc12` [Compound 1M, (1-Benzylpiperidin-4-yl)methyl (S)-2-(3-(5-((3-fluoro-4-((((R)-2-hydroxy-2-(8-hydroxy-2-oxo-1,2-dihydroquinolin-5-yl)ethyl)amino)methyl)-5-methoxybenzamido)methyl)thiophen-2-yl)phenyl)-2-hydroxy-2-phenylacetate], the pIC50 at Human β2 adrenoceptor and on Human M3 receptor was 8.52 to 9.52 in each case.
For the molecule `O=C(NCc1ccc(-c2cccc([C@](O)(C(=O)OCC3CCN(Cc4ccccc4)CC3)c3ccccc3)c2)s1)c1cccc(CNC[C@H](O)c2ccc(O)c3[nH]c(=O)ccc23)c1` [Compound 1N, (1-Benzylpiperidin-4-yl)methyl (S)-2-hydroxy-2-(3-(5-((3-((((R)-2-hydroxy-2-(8-hydroxy-2-oxo-1,2-dihydroquinolin-5-yl)ethyl)amino)methyl)-benzamido)methyl)thiophen-2-yl)phenyl)-2-phenylacetate], the pIC50 on Human β2 adrenoceptor and on Human M3 receptor was 8.52 to 9.52 in each case.
In the case of `Cc1cc(C(=O)NCc2ccc(-c3cccc([C@](O)(C(=O)OCC4CCN(Cc5ccccc5)CC4)c4ccccc4)c3)s2)c(F)cc1CNC[C@H](O)c1ccc(O)c2[nH]c(=O)ccc12` [Compound 1O, (1-Benzylpiperidin-4-yl)methyl (S)-2-(3-(5-((2-fluoro-4-((((R)-2-hydroxy-2-(8-hydroxy-2-oxo-1,2-dihydroquinolin-5-yl)ethyl)amino)methyl)-5-methylbenzamido)methyl)thiophen-2-yl)phenyl)-2-hydroxy-2-phenylacetate], the pIC50 was over 9.52 on Human β2 adrenoceptor and under 8.52 on Human M3 receptor.
The like results for `O=C(Cc1ccc(CNC[C@H](O)c2ccc(O)c3[nH]c(=O)ccc23)cc1)NCc1ccc(-c2cccc([C@](O)(C(=O)OCC3CCN(Cc4ccccc4)CC3)c3ccccc3)c2)s1` [Compound 1P, (1-Benzylpiperidin-4-yl)methyl (S)-2-hydroxy-2-(3-(5-((2-(4-((((R)-2-hydroxy-2-(8-hydroxy-2-oxo-1,2-dihydroquinolin-5-yl)ethyl)amino)methyl)-phenyl)acetamido)methyl)thiophen-2-yl)phenyl)-2-phenylacetate] were, in that order, 8.52 to 9.52 and 8.52 to 9.52.
The like results for `O=C(NCc1ccc(-c2cccc([C@](O)(C(=O)OCC3CCN(Cc4ccccc4)CC3)c3ccccc3)c2)s1)c1ccc(CNC[C@H](O)c2ccc(O)c3[nH]c(=O)ccc23)cn1` [Compound 1Q, (1-Benzylpiperidin-4-yl)methyl (S)-2-hydroxy-2-(3-(5-((5-((((R)-2-hydroxy-2-(8-hydroxy-2-oxo-1,2-dihydroquinolin-5-yl)ethyl)amino)methyl)-picolinamido)methyl)thiophen-2-yl)phenyl)-2-phenylacetate] were, in that order, over 9.52 and 8.52 to 9.52.
The corresponding values for `O=C(NCc1ccc(-c2cccc([C@](O)(C(=O)OCC3CCN(Cc4ccccc4)CC3)c3ccccc3)c2)s1)c1ccc(CNC[C@H](O)c2ccc(O)c3[nH]c(=O)ccc23)c(Cl)c1` [Compound 1R, (1-Benzylpiperidin-4-yl)methyl (S)-2-(3-(5-((3-chloro-4-((((R)-2-hydroxy-2-(8-hydroxy-2-oxo-1,2-dihydroquinolin-5-yl)ethyl)amino)methyl)-benzamido)methyl)thiophen-2-yl)phenyl)-2-hydroxy-2-phenylacetate] are over 9.52 and under 8.52.
As to `Cc1cc(C(=O)NCc2ccc(-c3cccc([C@](O)(C(=O)OCC4CCN(Cc5ccccc5)CC4)c4ccccc4)c3)s2)ccc1CNC[C@H](O)c1ccc(O)c2[nH]c(=O)ccc12` [Compound 1S, (1-Benzylpiperidin-4-yl)methyl (S)-2-hydroxy-2-(3-(5-((4-((((R)-2-hydroxy-2-(8-hydroxy-2-oxo-1,2-dihydroquinolin-5-yl)ethyl)amino)methyl)-3-methylbenzamido)methyl)thiophen-2-yl)phenyl)-2-phenylacetate], the figures for the pIC50 on Human β2 adrenoceptor and at Human M3 receptor were over 9.52 and 8.52 to 9.52, respectively.
On to `O=C(NCc1ccc(-c2cccc([C@](O)(C(=O)OCC3CCN(Cc4ccccc4)CC3)c3ccccc3)c2)s1)c1ccc(CNC[C@H](O)c2ccc(O)c3[nH]c(=O)ccc23)s1` [Compound 1T, (1-Benzylpiperidin-4-yl)methyl (S)-2-hydroxy-2-(3-(5-((5-((((R)-2-hydroxy-2-(8-hydroxy-2-oxo-1,2-dihydroquinolin-5-yl)ethyl)amino)methyl)thiophene-2-carboxamido)methyl)thiophen-2-yl)phenyl)-2-phenylacetate], for which the pIC50 at Human β2 adrenoceptor and on Human M3 receptor was 8.52 to 9.52 in each case.
Take `O=C(NCc1ccc(-c2cccc([C@](O)(C(=O)OCC3CCN(Cc4ccccc4)CC3)c3ccccc3)c2)s1)c1cc(F)c(CNC[C@H](O)c2ccc(O)c3[nH]c(=O)ccc23)cc1F` [Compound 1U, (1-Benzylpiperidin-4-yl)methyl (S)-2-(3-(5-((2,5-difluoro-4-((((R)-2-hydroxy-2-(8-hydroxy-2-oxo-1,2-dihydroquinolin-5-yl)ethyl)amino)methyl)-benzamido)methyl)thiophen-2-yl)phenyl)-2-hydroxy-2-phenylacetate]: the pIC50 at Human β2 adrenoceptor is over 9.52; at Human M3 receptor, 8.52 to 9.52.
Regarding `O=C(NCc1ccc(-c2cccc([C@](O)(C(=O)OCC3CCN(Cc4ccccc4)CC3)c3ccccc3)c2)s1)c1ccc(CNC[C@H](O)c2ccc(O)c3[nH]c(=O)ccc23)c(F)c1F` [Compound 1V, (1-Benzylpiperidin-4-yl)methyl (S)-2-(3-(5-((2,3-difluoro-4-((((R)-2-hydroxy-2-(8-hydroxy-2-oxo-1,2-dihydroquinolin-5-yl)ethyl)amino)methyl)-benzamido)methyl)thiophen-2-yl)phenyl)-2-hydroxy-2-phenylacetate], the pIC50 is over 9.52 at Human β2 adrenoceptor and 8.52 to 9.52 on Human M3 receptor.
As for `O=C(NCc1ccc(-c2cccc([C@](O)(C(=O)OCC3CCN(Cc4ccccc4)CC3)c3ccccc3)c2)s1)c1c(F)cc(CNC[C@H](O)c2ccc(O)c3[nH]c(=O)ccc23)cc1Cl` [Compound 1W, (1-Benzylpiperidin-4-yl)methyl (S)-2-(3-(5-((2-chloro-6-fluoro-4-((((R)-2-hydroxy-2-(8-hydroxy-2-oxo-1,2-dihydroquinolin-5-yl)ethyl)amino)methyl)-benzamido)methyl)thiophen-2-yl)phenyl)-2-hydroxy-2-phenylacetate], the pIC50 on Human β2 adrenoceptor was over 9.52; at Human M3 receptor it was 8.52 to 9.52.
For the molecule `COc1cc(CNC[C@H](O)c2ccc(O)c3[nH]c(=O)ccc23)cc(F)c1C(=O)NCc1ccc(-c2cccc([C@](O)(C(=O)OCC3CCN(Cc4ccccc4)CC3)c3ccccc3)c2)s1` [Compound 1X, (1-Benzylpiperidin-4-yl)methyl (S)-2-(3-(5-((2-fluoro-4-((((R)-2-hydroxy-2-(8-hydroxy-2-oxo-1,2-dihydroquinolin-5-yl)ethyl)amino)methyl)-6-methoxybenzamido)methyl)thiophen-2-yl)phenyl)-2-hydroxy-2-phenylacetate], the pIC50 at Human β2 adrenoceptor was over 9.52; at Human M3 receptor, 8.52 to 9.52.
